This passage reports mutagenic call and call results from PubChem BioAssay AID1259408 (Genetic Toxicology Data Bank (GENE-TOX), 2018).

Active and inactive are the calls of the source. How the calls were made is not given here.

The data set concerns GENE-TOX genotoxicity assays, various organisms and cells. Briefly: GENE-TOX mutagenicity studies. The settings on record: for call: Assay Type: In vivo carcinogenicity studies.
Setting [1] is: Species/Cell Type: Drosophila melanogaster, Assay Type: Sex-linked recessive lethal gene mutation, Assay Code: SRL+, Evaluation Type: Evaluation A (Pre-1980).
The mark [2] stands for this setting: Species/Cell Type: Escherichia coli polA (W3119 vs P3478), Assay Type: Rec-assay, DNA effects (bacterial DNA repair), Assay Code: RE1+, Evaluation Type: Evaluation A (Pre-1980).
Setting [3] is: Species/Cell Type: Mouse lymphoma (L5178Y) cells, Assay Type: Forward gene mutation at the thymidine kinase (TK) locus, chromosome aberrations, Assay Code: L51+, Evaluation Type: Evaluation A (Pre-1980).
[4] abbreviates: Species/Cell Type: Salmonella typhimurium (one or more of the five standard strains: TA98, TA100, TA1535, TA1537, and TA1538), Assay Type: Histidine reverse gene mutation, Ames assay, Assay Code: SAL+*, Activation: With metabolic activation, Evaluation Type: Evaluation A (Pre-1980).
Setting [5] is: Species/Cell Type: Salmonella typhimurium (one or more of the five standard strains: TA98, TA100, TA1535, TA1537, and TA1538), Assay Type: Histidine reverse gene mutation, Ames assay, Assay Code: SALT, Evaluation Type: Evaluation A (Pre-1980).
Setting [6] is: Species/Cell Type: Salmonella typhimurium (one or more of the five standard strains: TA98, TA100, TA1535, TA1537, and TA1538), Assay Type: Histidine reverse gene mutation, Ames assay, Assay Code: SAL+, Evaluation Type: Evaluation A (Pre-1980).
[7] abbreviates: Species/Cell Type: Mouse, Sex: Male, Assay Type: Sperm morphology, Assay Code: SPI-, Evaluation Type: Evaluation A (Pre-1980).
[8] abbreviates: Species/Cell Type: Bacillus subtilis (H17 vs M45), Assay Type: Rec-assay, spot test, DNA effects (bacterial DNA repair), Assay Code: REW-, Evaluation Type: Evaluation A (Pre-1980).
Setting [9] is: Species/Cell Type: Nonhuman, Assay Code: CCG+, Evaluation Type: Evaluation A (Pre-1980).
Where [10] appears, read: Species/Cell Type: Nonhuman, Assay Type: Sister-chromatid exchange (SCE) in vitro, Assay Code: SC2+D, Dose Response: With dose response, Evaluation Type: Evaluation B (Post-1980).
The mark [11] stands for this setting: Species/Cell Type: Chinese hamster lung (V79) cells, Assay Type: Forward gene mutation at the HPRT or ouabain locus, Assay Code: V79+, Evaluation Type: Evaluation A (Pre-1980).
[12] abbreviates: Species/Cell Type: Nonhuman, Assay Code: CCG+L, Evaluation Type: Evaluation A (Pre-1980).

For `CCN(CC)CCNc1ccc(C)c2sc3ccccc3c(=O)c12`, the mutagenic call was “active; positive” (Species/Cell Type: Drosophila melanogaster, Assay Type: Aneuploidy, whole sex chromosome loss, chromosome aberrations, Assay Code: DAC+M, Evaluation Type: Evaluation A (Pre-1980)); “active; positive” under setting [1]; “active; positive” under setting [2]; “active; positive” (Species/Cell Type: Fischer rat embryo (RLV/1706) cells, Assay Type: Cell transformation, viral enhanced, Assay Code: CTR+, Evaluation Type: Evaluation A (Pre-1980)); “active; positive” under setting [3]; “inactive; negative” (Species/Cell Type: Neurospora crassa, Assay Type: Aneuploidy, chromosome aberrations, Assay Code: NEN-, Evaluation Type: Evaluation A (Pre-1980)). Besides, the mutagenic call runs as follows: (Species/Cell Type: Neurospora crassa, Assay Type: Forward gene mutation, Assay Code: NEF+, Evaluation Type: Evaluation A (Pre-1980)) “active; positive”; under setting [4], “active; positive”; under setting [5], “no conclusion”.

In the case of `COc1cc2c(c3oc(=O)c4c(c13)CCOC4=O)C1CC(O)OC1O2` (configuration not stated), the mutagenic call under setting [5] is given as “no conclusion”.

With `OCC(Br)CBr` (configuration not stated), the mutagenic call under setting [6] was “active; positive”.

With `c1ccc2nccnc2c1`, under setting [7], the mutagenic call was “inactive; negative”.

Turning to `N#Cc1cccc2ccccc12`, the mutagenic call (Species/Cell Type: Allium cepa, Assay Type: Chromosome aberrations, Assay Code: ALC+D, Dose Response: With dose response, Evaluation Type: Evaluation A (Pre-1980)) is “active; positive”.

As for `[Cl][Mo]([Cl])([Cl])([Cl])[Cl]`, under setting [8], the mutagenic call is “inactive; negative”.

Turning to `CCC1CCCCN1CCNc1ccc(CO)c2sc3ccccc3c(=O)c12` (configuration not stated), under setting [3], the mutagenic call is “active; positive”.

Turning to `CC1CC(C)CN(N=O)C1` (configuration not stated), the mutagenic call is “active; positive” under setting [1]; “active; positive” (Species/Cell Type: Saccharomyces cerevisiae, Assay Type: Forward gene mutation, Assay Code: YEF+*, Activation: With metabolic activation, Evaluation Type: Evaluation A (Pre-1980)); “active; positive” (Species/Cell Type: Saccharomyces cerevisiae, Assay Type: Reverse gene mutation, Assay Code: YER+*, Activation: With metabolic activation, Evaluation Type: Evaluation A (Pre-1980)); “no conclusion” under setting [5].

With `CCCCN(CCCCO)N=O`, the mutagenic call is “no conclusion” (Species/Cell Type: Escherichia coli polA (W3119 vs P3478), Assay Type: Rec-assay, DNA effects (bacterial DNA repair), Assay Code: RE1T, Evaluation Type: Evaluation A (Pre-1980)); “inactive; negative” (Species/Cell Type: Nonhuman, Assay Type: Chromosome aberrations in vitro, Assay Code: CY&-, Evaluation Type: Evaluation A (Pre-1980)); “active; positive” under setting [10]; “no conclusion” (Species/Cell Type: Nonhuman, Assay Type: Sister-chromatid exchange (SCE) in vitro, Assay Code: SC2T, Evaluation Type: Evaluation A (Pre-1980)); “active; positive” under setting [6]. Further, the call under setting [9] is “active; positive”.

`ClC1=C(Cl)C2(Cl)C3C(Cl)C(Cl)CC3C1(Cl)C2(Cl)Cl` (configuration not stated): the mutagenic call under setting [11] is “active; positive”; the mutagenic call (Species/Cell Type: Rodents, Sex: Male, Assay Type: Dominant lethal test, Assay Code: DLTT, Evaluation Type: Evaluation A (Pre-1980)) was “no conclusion”; the mutagenic call (Species/Cell Type: Zea mays (corn), Assay Type: Gene mutation, Assay Code: ZEM+, Evaluation Type: Evaluation A (Pre-1980)) was “active; positive”. Further, the call under setting [12] was “active; positive”.

For `O[C@H]1C=Cc2c(cc3ccc4cccc5ccc2c3c45)[C@@H]1O`, the mutagenic call reads like this: (Species/Cell Type: Chinese hamster lung (V79) cells, Assay Type: Forward gene mutation at the HPRT or ouabain locus, Assay Code: V79+*, Activation: With metabolic activation, Evaluation Type: Evaluation A (Pre-1980)) “active; positive”; (Species/Cell Type: Nonhuman, Assay Type: Sister-chromatid exchange (SCE) in vitro, Assay Code: SC2+D, Dose Response: With dose response, Evaluation Type: Evaluation A (Pre-1980)) “active; positive”; under setting [10], “active; positive”; under setting [4], “active; positive”. Also, the call was “active; positive” under setting [9] and “active; positive” under setting [12].

Regarding `COc1cc([C@@H]2c3cc4c(cc3[C@@H](O[C@@H]3O[C@H](CO)[C@@H](O)[C@H](O)[C@H]3O)[C@H]3COC(=O)[C@H]23)OCO4)cc(OC)c1O`, the mutagenic call (Species/Cell Type: Chinese hamster ovary (CHO) cells, Assay Type: Forward gene mutation at the HPRT locus, Assay Code: CHO+, Evaluation Type: Evaluation B (Post-1980)) is “active; positive”.

Turning to `CC1=C(O)C(=O)C(C2=C(O)C(=O)C(C)=C(O)C2=O)=C(O)C1=O`, the mutagenic call is “inactive; negative” (Species/Cell Type: Saccharomyces cerevisiae, Assay Type: Mitotic recombination or gene conversion, Assay Code: YEH-, Evaluation Type: Evaluation A (Pre-1980)) and “no conclusion” under setting [5].

On to `C#C[C@]1(O)CC[C@H]2[C@@H]3CCc4cc(OC)ccc4[C@H]3CC[C@@]21C`, for which the call under setting [9] was “active; positive”.

With `Cc1cccc2c1cc(C)c1c3ccccc3ccc21`, the mutagenic call under setting [4] was “active; positive”.

In the case of `Cl`, the mutagenic call by setting is: (Species/Cell Type: Bacillus subtilis (H17 vs M45), Assay Type: Rec-assay, spot test, DNA effects (bacterial DNA repair), Assay Code: REW+, Evaluation Type: Evaluation A (Pre-1980)) “active; positive”; under setting [8], “inactive; negative”; (Species/Cell Type: Syrian hamster embryo (SA7/SHE) cells, Assay Type: Cell transformation, viral enhanced, Assay Code: CT7-, Evaluation Type: Evaluation A (Pre-1980)) “inactive; negative”.

As for `OCCBr`, the mutagenic call runs as follows: under setting [2], “active; positive”; under setting [7], “inactive; negative”; under setting [6], “active; positive”; (Species/Cell Type: Tradescantia species, Assay Type: Gene mutation, Assay Code: TRM+D, Dose Response: With dose response, Evaluation Type: Evaluation A (Pre-1980)) “active; positive”.

With `CC#CC#CC#Cc1ccccc1`, the mutagenic call (Species/Cell Type: Nonhuman, Assay Type: Sister-chromatid exchange (SCE) in vitro, Assay Code: SC2T, Evaluation Type: Evaluation B (Post-1980)) is “no conclusion”.

As for `O[C@@H]1[C@@H]2O[C@@H]2c2cc3ccc4cccc5ccc(c2[C@H]1O)c3c45`, the mutagenic call under setting [11] is “active; positive” and the mutagenic call under setting [10] was “active; positive”.

As to `NS(=O)(=O)c1ccc(C(=O)O)cc1`, where the note is “Species/Cell Type: Mammalian polychromatic erythrocytes, Assay Type: Micronucleus test, chromosome aberrations, Assay Code: MNTT, Evaluation Type: Evaluation B (Post-1980)”, the mutagenic call is “no conclusion”.

In the case of `Nc1ccc(S(=O)(=O)O)c2ccccc12`, the mutagenic call under setting [5] is “no conclusion”.

Consider `O=[N+]([O-])c1ccc(N2CCN(CCO)CC2)c2c1no[n+]2[O-]`, for which the mutagenic call under setting [6] was “active; positive”.

Take `C=COC(N)=O`: the mutagenic call by setting is: (Species/Cell Type: Human lymphocytes, Assay Type: Sister-chromatid exchange (SCE) in vitro, Assay Code: SCL+, Evaluation Type: Evaluation B (Post-1980)) “active; positive”; (Species/Cell Type: Human, Assay Type: Sister-chromatid exchange (SCE) in vitro, Assay Code: SC1+, Evaluation Type: Evaluation B (Post-1980)) “active; positive”; under setting [10], “active; positive”; (Species/Cell Type: Nonhuman, Assay Type: Sister-chromatid exchange (SCE) in vivo, Assay Code: SC3+D, Dose Response: With dose response, Evaluation Type: Evaluation B (Post-1980)) “active; positive”.
